What all share (assay type): functional, cell-based
The target of data set [1] is T1, Broad substrate specificity ATP-binding cassette transporter ABCG2 (Homo sapiens, UniProt Q9UNQ0).
T1 sequence (Q9UNQ0 whole entry): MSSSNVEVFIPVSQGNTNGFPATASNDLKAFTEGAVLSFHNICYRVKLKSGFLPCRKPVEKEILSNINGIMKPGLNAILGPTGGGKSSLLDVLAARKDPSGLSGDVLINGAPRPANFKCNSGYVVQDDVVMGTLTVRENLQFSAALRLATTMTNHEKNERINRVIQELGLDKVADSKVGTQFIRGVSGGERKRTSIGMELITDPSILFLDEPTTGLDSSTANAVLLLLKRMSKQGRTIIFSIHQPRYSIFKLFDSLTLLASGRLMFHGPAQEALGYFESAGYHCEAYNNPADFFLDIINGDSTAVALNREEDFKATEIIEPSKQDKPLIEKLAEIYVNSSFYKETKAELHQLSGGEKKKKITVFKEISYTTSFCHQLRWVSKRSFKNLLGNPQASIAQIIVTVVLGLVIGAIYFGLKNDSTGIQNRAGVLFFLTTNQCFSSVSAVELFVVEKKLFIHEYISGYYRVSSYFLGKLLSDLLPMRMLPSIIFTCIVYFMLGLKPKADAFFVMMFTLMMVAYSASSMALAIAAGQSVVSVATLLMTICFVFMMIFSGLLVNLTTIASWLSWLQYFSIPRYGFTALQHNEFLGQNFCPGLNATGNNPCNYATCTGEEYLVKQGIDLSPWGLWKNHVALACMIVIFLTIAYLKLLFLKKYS
Description: TP_TRANSPORTER: increase in Topotecan intracellular accumulation (Topotecan: 1.9 uM, GF120918: 2 uM) in T8 cells.

The target of data set [2] is T1, Broad substrate specificity ATP-binding cassette transporter ABCG2. The experiment in a line: TP_TRANSPORTER: increase in Topotecan intracellular accumulation (Topotecan: 1.9 uM, GF120918: 2 uM) in MX3 cells.
Data set [3] shares this target. The experiment in a line: TP_TRANSPORTER: increase of cytotoxicity by GF120918 in MX3 cells.
The target is the same in data set [4]. Description: TP_TRANSPORTER: increase of cytotoxicity by GF120918 in T8 cells.
The target is the same in data set [5]. Description: TP_TRANSPORTER: increase in intracellular accumulation by GF120918 in T8 cell.

Structures are written as SMILES.

In the case of `COc1cc2c(cc1OC)CN(CCc1ccc(NC(=O)c3cccc4c(=O)c5cccc(OC)c5[nH]c34)cc1)CC2.Cl` [ELACRIDAR HYDROCHLORIDE], the Activity entry in data set [1] and in data set [2] was “inhibitor [+]” throughout.

For `CC[C@@]1(O)C(=O)OCc2c1cc1n(c2=O)Cc2c-1nc1cc(F)c(C)c3c1c2[C@@H](N)CC3` [EXATECAN], the Activity entry in data set [3] and in data set [4] was “substrate []” throughout. For `CC[C@@]1(O)C(=O)OCc2c1cc1n(c2=O)Cc2cc3c(CN(C)C)c(O)ccc3nc2-1` [TOPOTECAN], the Activity entry in data set [5] is “substrate [+]”.

The record behind these values is ChEMBL document CHEMBL2074070, “Circumvention of breast cancer resistance protein (BCRP)-mediated resistance to camptothecins in vitro using non-substrate drugs or the BCRP inhibitor GF120918” (Clin Cancer Res, 2001).
